Measured values as given in PubChem BioAssay (NCI).
Several values for one entry are separate records, joined by “and”; a condition that tells them apart may be missing. Equal values may be shown once.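 Five concentrations, 48 hours, 96-well plates. GI50: concentration for 50% inhibition of growth. TGI is the concentration that stops growth completely.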 Where a SMILES comes first, the peptide text is derived from it. [ ]: non-standard residue; d: D form. The star is where a group is joined. NMeV = CN[C@H](C(=O)O)C(C)C; X29 = COc1ccc(CN*)c(OC)c1; Octanoyl = CCCCCCCC(=O)*; dNMeA = CN[C@H](C)C(=O)O

How the values were obtained:
Experiment in all cases: NCI-60 cell line screen, 48 h
SNB-75 CNS = test system: SNB-75 CNS
DMS 273 small cell lung = test system: DMS 273 small cell lung
M19-MEL melanoma = test system: M19-MEL melanoma
LXFL 529 NSCLC = test system: LXFL 529 NSCLC
XF 498 CNS = test system: XF 498 CNS
NCI-H522 lung = test system: NCI-H522 lung
HOP-92 NSCLC = test system: HOP-92 NSCLC
OVCAR-8 ovarian = test system: OVCAR-8 ovarian
TK-10 renal = test system: TK-10 renal
SK-MEL-28 melanoma = test system: SK-MEL-28 melanoma
DMS 114 small cell lung = test system: DMS 114 small cell lung
DLD-1 colon = test system: DLD-1 colon
KM20L2 colon = test system: KM20L2 colon
SNB-78 CNS = test system: SNB-78 CNS
786-0 renal = test system: 786-0 renal
HOP-18 NSCLC = test system: HOP-18 NSCLC
RXF-631 renal = test system: RXF-631 renal
PC-3 prostate = test system: PC-3 prostate

Structure (SMILES)	TGI (SNB-75 CNS)	TGI (DMS 273 small cell lung)	TGI (M19-MEL melanoma)	TGI (LXFL 529 NSCLC)	TGI (XF 498 CNS)	TGI (NCI-H522 lung)	TGI (HOP-92 NSCLC)	TGI (OVCAR-8 ovarian)	TGI (TK-10 renal)	TGI (SK-MEL-28 melanoma)	TGI (DMS 114 small cell lung)	TGI (DLD-1 colon)	TGI (KM20L2 colon)	TGI (SNB-78 CNS)	TGI (786-0 renal)	TGI (HOP-18 NSCLC)	TGI (RXF-631 renal)	TGI (PC-3 prostate)	GI50 (PC-3 prostate)
O=C(O)c1ccc(C2COc3ccc(Cl)cc3C2)cc1 (stereo not drawn)	> 100 µM	> 100 µM	> 100 µM	> 100 µM	> 100 µM	> 100 µM	> 100 µM	> 100 µM	> 100 µM	> 100 µM	> 100 µM	> 100 µM	> 100 µM	> 100 µM	> 100 µM	> 100 µM			
C/C=C1\CN2CCc3c([nH]c4ccccc34)C2CC1C(=O)OC (stereo not drawn)		> 322 µM		> 322 µM	> 322 µM	> 322 µM	> 322 µM	> 322 µM	> 322 µM	> 322 µM		> 322 µM	> 322 µM		> 322 µM				
O=c1[nH]cc(COCCCO)c(=O)[nH]1	> 100 µM	> 100 µM	> 100 µM	> 100 µM	> 100 µM	> 100 µM	> 100 µM	> 100 µM	> 100 µM	> 100 µM		> 100 µM	> 100 µM	> 100 µM	> 100 µM	> 100 µM			
CCn1c2ccccc2c2ccc3c(c21)C(=O)C=CC3=O	63.3 µM	33.8 µM	25.8 µM	3.56 µM	12.9 µM	4.52 µM	30.3 µM	29 µM	30 µM	33.3 µM	21.7 µM	14.9 µM		57.5 µM	3.3 µM	23.2 µM			
C[N+](C)(C)CCc1ccccc1	> 100 µM	> 100 µM	> 100 µM	> 100 µM	> 100 µM	> 100 µM	> 100 µM	> 100 µM	> 100 µM	> 100 µM	> 100 µM	> 100 µM	> 100 µM	> 100 µM	> 100 µM		> 100 µM		
CCCCCCCC(=O)N[C@H](C(=O)N[C@H](C(=O)N(C)[C@H](C(=O)N1CCC[C@H]1C(=O)N(C)[C@H](C)C(=O)NCc1ccc(OC)cc1OC)C(C)C)C(C)C)C(C)C (Octanoyl-VV[NMeV]P[dNMeA]-X29)	> 100 µM					31.4 µM	36.7 µM	> 100 µM	> 100 µM	> 68.2 µM					> 100 µM			58.7 µM	
CC(=O)c1ccc2c(c1)CC1(C2)Cc2cc3c(cc2C1=O)CCC3 (stereo not drawn)	41.2 µM					83.6 µM	65.5 µM	36.1 µM	71.3 µM	48.8 µM					63.1 µM			72.2 µM	
COc1ccc(C(=O)/C=C/c2ccc(O)c(O)c2)c(OC)c1	29.5 µM					0.74 µM	> 100 µM	> 86.6 µM	20.2 µM	48.4 µM					44.3 µM			26.4 µM	
COc1cc2c(cc1OC)C1C=NC(C2)c2cc(OC)c(OC)cc21 (stereo not drawn)	> 100 µM					> 100 µM	> 100 µM	> 100 µM	> 100 µM	> 100 µM					> 100 µM			> 100 µM	
C=CC[C@@H](N)C(=O)N(C)[C@@H](C)[C@@H](O)c1ccccc1	> 100 µM					44.2 µM	> 100 µM	> 100 µM	> 100 µM	> 100 µM					> 100 µM			> 100 µM	
CCN(CC)CC1CCCCN1CC(=O)N1c2ccccc2C(=O)Nc2cccnc21 (stereo not drawn)	> 100 µM					> 100 µM	> 100 µM	> 100 µM	> 100 µM	> 100 µM					> 100 µM			> 100 µM	
CC1(C)C=Cc2c(cc(O)c3c(=O)c4cc(Cl)ccc4[nH]c23)O1	> 10 µM					6.46 µM	7.79 µM	> 10 µM	> 10 µM	> 10 µM					> 10 µM			7.12 µM	
O=C1CCCN1C(=O)CS(=O)(=O)c1ccccc1	> 100 µM					> 100 µM	> 100 µM	> 100 µM	> 100 µM	> 100 µM					> 100 µM			> 100 µM	
CS(=O)(=O)OCC1CN(S(C)(=O)=O)c2cc(O)ccc21 (stereo not drawn)	7.43 µM					2.94 µM	7.08 µM	11.5 µM	6.62 µM	11.6 µM					12 µM			5.62 µM	
CN(C)c1ccc(NN=C2SC(=Nc3ccccc3)C(=Nc3ccccc3)S2)cc1	> 100 µM					> 100 µM	> 100 µM	> 100 µM	> 100 µM	> 100 µM					> 100 µM			> 100 µM	
COc1ccc(CC2(O)C3CC4CCC2C4C3)cc1 (stereo not drawn)	> 100 µM					> 100 µM	> 100 µM	> 100 µM	> 100 µM	> 100 µM					> 100 µM			> 100 µM	
CC(C)(C)c1cc2c(OC/C=C/c3ccccc3)c(c1)Cc1cc(C(C#N)(OC/C=C/c3ccccc3)OC/C=C/c3ccccc3)cc(c1OC/C=C\c1ccccc1)Cc1cc(C(C)(C)C)cc(c1OC/C=C/c1ccccc1)Cc1cc(C(C#N)(OC/C=C\c3ccccc3)OC/C=C/c3ccccc3)cc(c1OC/C=C\c1ccccc1)C2 (stereo not drawn)	> 100 µM					> 100 µM	> 100 µM	> 100 µM	54.3 µM	> 100 µM					> 100 µM			> 100 µM	
CCOC(=O)C1=NOC2(C=C(Br)C(=O)C(Br)=C2)C1	33.4 µM					1.34 µM	3.56 µM	5.3 µM	2.27 µM	24.7 µM					1.76 µM			5.31 µM	
COc1cccc(NC(=O)CSc2nnc(-c3ccc(NC(C)=O)cc3)o2)c1	> 100 µM	> 100 µM	> 100 µM	> 100 µM		> 100 µM	> 100 µM	> 100 µM	> 100 µM	> 100 µM	> 100 µM	> 100 µM	> 100 µM	> 100 µM	> 100 µM	> 100 µM			
COc1c(Br)cc2c(c1OC)C(Br)CCC(Br)(Br)C2=O (stereo not drawn)	22.2 µM					2 µM	12.5 µM	1.53 µM	8.39 µM	8.88 µM					1.46 µM			4.03 µM	
CCCCCCCOc1ccc(/C=C\c2cc[n+](CCCCCCCC[n+]3ccc(/C=C\c4ccc(OCCCCCCC)cc4)cc3)cc2)cc1	> 100 µM	71.1 µM	> 100 µM	34.8 µM		10.7 µM	> 100 µM	55.5 µM	43.7 µM	32.2 µM	36 µM	67 µM	63.1 µM	> 100 µM	32 µM	28.4 µM			
c1ccc2c(c1)C1CCCCCC21N1CCOCC1 (stereo not drawn)	> 100 µM	> 100 µM	> 100 µM	> 100 µM		> 100 µM		> 100 µM	> 100 µM	> 100 µM	> 100 µM	> 100 µM	> 100 µM	> 100 µM	> 100 µM				
O=C(NC1CCCCC1NC(c1ccccc1)(c1ccccc1)c1ccccc1)C(=O)NC1CCCCC1NC(c1ccccc1)(c1ccccc1)c1ccccc1 (stereo not drawn)	8.65 µM					> 100 µM	60.5 µM	> 100 µM	> 100 µM	> 100 µM					> 100 µM			> 100 µM	
O=C(CSc1nnc(Cc2ccccc2)o1)Nc1ccccc1	> 100 µM	> 100 µM	> 100 µM	> 100 µM		> 100 µM		> 100 µM	> 100 µM	> 100 µM	> 100 µM	> 100 µM	> 100 µM	> 100 µM	> 100 µM	> 100 µM			
O=C(NNCC(O)COc1ccccc1)c1ccccc1 (stereo not drawn)	> 100 µM					> 100 µM	> 100 µM	> 100 µM	> 100 µM	> 100 µM					> 100 µM			> 100 µM	
COC(=O)[C@@H]1CC(C(C[N+](=O)[O-])c2ccc(O[Si](C)(C)C(C)(C)C)cc2)C(=O)N1C(=O)OC(C)(C)C (stereo partly drawn)	> 100 µM					> 100 µM	> 100 µM	> 100 µM	> 100 µM	> 100 µM					> 100 µM			> 100 µM	> 100 µM and 34.5 µM
N#CC1C(=O)NC23CCCCC2C1c1ccccc1O3 (stereo not drawn)	> 100 µM					> 100 µM	> 100 µM	> 100 µM	> 100 µM	> 100 µM					> 100 µM			> 100 µM	
O=C(NC1=C(Cl)C(=O)c2ccccc2C1=O)c1ccc(F)cc1	22.1 µM					1.84 µM	3.34 µM	19.3 µM	14.6 µM	18.4 µM					> 100 µM			10.7 µM	
